The test addresses T1, Nox2 (Homo sapiens, UniProt P04839).
T1 construct: expressed in transfected cells
T1 sequence (P04839 2-570 limits assumed): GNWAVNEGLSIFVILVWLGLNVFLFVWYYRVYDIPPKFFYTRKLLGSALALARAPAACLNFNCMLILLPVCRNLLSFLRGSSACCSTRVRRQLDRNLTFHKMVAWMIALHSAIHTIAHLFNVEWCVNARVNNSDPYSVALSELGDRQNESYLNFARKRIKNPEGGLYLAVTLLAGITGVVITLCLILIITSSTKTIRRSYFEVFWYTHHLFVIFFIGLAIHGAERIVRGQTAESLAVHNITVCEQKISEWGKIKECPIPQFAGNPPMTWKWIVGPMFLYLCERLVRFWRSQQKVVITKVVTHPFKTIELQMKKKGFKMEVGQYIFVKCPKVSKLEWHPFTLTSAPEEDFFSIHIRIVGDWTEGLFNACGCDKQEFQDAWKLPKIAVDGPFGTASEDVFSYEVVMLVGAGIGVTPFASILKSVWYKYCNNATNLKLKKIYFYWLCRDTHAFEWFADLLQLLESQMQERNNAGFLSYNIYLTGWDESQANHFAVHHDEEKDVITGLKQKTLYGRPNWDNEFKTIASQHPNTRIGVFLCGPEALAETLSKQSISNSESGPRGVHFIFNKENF
Briefly: ROS (H2O2) generation in whole COS-Nox2 cells, Amplex Red assay. The class given is cell-based. As to conditions: for IC50: whole COS-Nox2 cells stimulated with 5 μM PMA, Amplex Red; for Nox2 inhibitory activity: Table 2; for Selectivity for Nox2 over other Nox isoforms: cell-based assays for each Nox system. The text has this: All cell culture reagents were obtained from Invitrogen, unless indicated. COS-22 (COS-7 cells stably expressing human p22^phox) and COS-Nox2 (a.k.a. COS-phox) cells (COS-7 cells stably expressing human p22^phox, Nox2, p47^phox and p67^phox) were kindly provided by Dr. Mary C. Dinauer (Indiana University, School of Medicine) (Price et al., Blood, 2002, 99:2653-2661). COS-22 cells were maintained in Dulbecco's Modified Eagle Medium (DMEM) with 4.5 g/L glucose, L-glutamine and sodium pyruvate containing 10% heat-inactivated fetal bovine serum (FBS), 100 units/ml penicillin and 100 μg/ml streptomycin (complete media) supplemented with 1.8 mg/ml G418 (Calbiochem/EMB Bioscience, Gibbstown, N.J.). COS-Nox2 cells were maintained in complete media supplemented with 1.8 mg/mL G418, 1 μg/mL puromycin (Sigma, St Louis, Mo.) and 0.2 mg/mL hygromycin B (Invitrogen, Carlsbad, Calif.). HEK-Nox5 cells were kindly provided by Dr. David Fulton (Georgia Health Sciences University) and maintained in complete media.
H2O2 production was quantified in intact COS-Nox4 cells by Amplex® Red. Briefly, COS-Nox4 cells (5×10^4 cells/ml) were re-plated into 384-well plate in assay buffer (25 mM Hepes, pH 7.4, containing 0.12 M NaCl, 3 mM KCl, 1 mM MgCl2). The cells were incubated in the presence or absence of drugs at 37° C. in assay buffer supplemented with 0.1 mM Amplex® Red, and 0.32 U/ml of horse radish peroxidase (HRP) for 15 min. Fluorescence measurements were made using a Biotek Synergy 4 Hybrid Multi-Mode Microplate Reader with a 530/25-excitation and a 590/35-emission filter. The reaction was monitored at 37° C. for 1 h. A standard curve of known H2O2 concentrations was included on each plate. Nox4 activity was obtained by calculating the rate of H2O2 production as RFU/min and then subtracting the equivalent value given by non-transfected COS-22 cells. Similarly, H2O2 production by Nox2 cells was also measured by Amplex® Red as described above but in the presence of 150 U/mL of SOD and the reaction was initiated by addition of 5 μM PMA. The rate of H2O2 production in this case was calculated as RFU/min after the subtraction of the equivalent value given by non-stimulated cells. Data are expressed as % of vehicle control.
All data are expressed as means±SEM. IC50 values were determined using the GraphPad Prism software (GraphPad Software, San Diego, Calif.) for non-linear regression three-parameters, with constrain values of 100 and 0 for top and bottom, respectively, and assumes a Hill slope of 1.

Each structure is given as a SMILES string. Where “and” joins values, the source holds several entries; their conditions need not be identical. Equal entries are not always repeated. A value given as a limit tells only on which side of the number the result lay.

For `C=C(C)CC1NC2CC(C)(C)C1c1c(Br)cccc12` (racemic) [Compound 7, (±)-(1S,4R,9S)-5-Bromo-3,3-dimethyl-9-(2-methylallyl)-1,2,3,4-tetrahydro-1,4-(epimino-methano)-naphthalene], the IC50 (commonly the concentration that gives 50% inhibition) is 40 µM and 25 to 40 µM. For `C=C(C)CC1NC2CC(C)(C)C1c1ccccc12` (racemic) [Compound 8, (±)-(1S,4R,9S)-3,3-Dimethyl-9-(2-methylallyl)-1,2,3,4-tetrahydro-1,4-(epiminomethano)-naphthalene], the “Nox2 inhibitory activity” value was “inactive” and the IC50 is above 100 µM. Regarding `C=C(C)CC1C2c3ccccc3C(CC2(C)C)N1Cc1cccc(F)c1` (racemic) [Compound 11a, (±)-(1S,4R,9S)-10-(3-Fluorobenzyl)-3,3-dimethyl-9-(2-methylallyl)-1,2,3,4-tetrahydro-1,4-(epiminomethano)naphthalene], the IC50 is 30 ± 7.5 µM. With `C=C(C)CC1C2c3c(Br)cccc3C(CC2(C)C)N1Cc1ccnc2ccccc12` (racemic) [Compound 11b, (±)-(1S,4R,9S)-5-Bromo-3,3-dimethyl-9-(2-methylallyl)-10-(quinolin-4-ylmethyl)-1,2,3,4-tetra-hydro-1,4-(epiminomethano)naphthalene], the “Nox2 inhibitory activity” value is “completely abolished” and the IC50 was above 100 µM. Take `C=C(C)CC1C2c3c(Br)cccc3C(CC2(C)C)N1Cc1c[nH]c2ccccc12` (racemic) [Compound 11c, (±)-(1S,4R,9S)-10-((1H-Indol-3-yl)methyl)-5-bromo-3,3-dimethyl-9-(2-methylallyl)-1,2,3,4-tetrahydro-1,4-(epiminomethano)naphthalene]: the “Nox2 inhibitory activity” value was “completely abolished” and the IC50 is above 100 µM. Taken in the same sequence, the figures for `C=C(C)CC1C2c3c(Br)cccc3C(CC2(C)C)N1Cc1ccc2c(c1)OCO2` (racemic) [Compound 11d, (±)-(1S,4R,9S)-10-(Benzo[d][1,3]dioxol-5-ylmethyl)-5-bromo-3,3-dimethyl-9-(2-methylallyl)-1,2,3,4-tetrahydro-1,4-(epiminomethano)naphthalene] were “decreased” and 40 µM. As to `C=C(C)CC1C2c3c(Br)cccc3C(CC2(C)C)N1Cc1cc(C)on1` (racemic) [Compound 11e, (±)-3-(1S,4R,9S)-5-Bromo-3,3-dimethyl-9-(2-methylallyl)-1,2,3,4-tetrahydro-1,4-(epimino-methano) naphthalen-10-yl)methyl)-5-methylisoxazole], the IC50 was 12 ± 0.5 µM. Still for that read-out and setting: to `C=C(C)CC1C2c3c(Br)cccc3C(CC2(C)C)N1Cc1cccc(F)c1` (racemic) [Compound 11f, (±)-(1S,4R,9S)-5-Bromo-10-(3-fluorobenzyl)-3,3-dimethyl-9-(2-methylallyl)-1,2,3,4-tetrahydro-1,4-(epiminomethano)naphthalene] belongs 51 µM. For `C=C(C)CC1C2c3c(Br)cccc3C(CC2(C)C)N1CCCCC` (racemic) [Compound 11g, (±)-(1S,4R,9S)-5-Bromo-3,3-dimethyl-9-(2-methylallyl-10-pentyl-1,2,3,4-tetrahydro-1,4-(epiminomethano)naphthalene], the “Selectivity for Nox2 over other Nox isoforms” value (“Selectivity for Nox2” for short) was “specificity for Nox2 over Nox1, 4, and 5”; the IC50 came out at 20 ± 1.9 µM. `C=C(C)CC1C2c3c(Br)cccc3C(CC2(C)C)N1Cc1cccs1` (racemic) [Compound 11h, (±)-(1S,4R,9S)-5-Bromo-3,3-dimethyl-9-(2-methylallyl)-10-(thiophen-2-ylmethyl)-1,2,3,4-tetrahydro-1,4-(epiminomethano)naphthalene]: the “Selectivity for Nox2” value was “specificity for Nox2 over Nox1, 4, and 5”; the IC50 was determined as 32 ± 1.9 µM. For `C=C(C)CC1NC2CC(C)(C)C1c1c(-c3ccc(Cl)c(Cl)c3)cccc12` (racemic) [Compound 12a, (±)-(1S,4R,9S)-5-(3,4-Dichlorophenyl)-3,3-dimethyl-9-(2-methylallyl)-1,2,3,4-tetrahydro-1,4-(epiminomethano)naphthalene], the “Nox2 inhibitory activity” value is recorded as “comparable”, the “Selectivity for Nox2” value is recorded as “greater selectivity over Nox1” and the IC50 was determined as 64 ± 35 µM. Consider `C=C(C)CC1C2c3c(-c4ccc(Cl)c(Cl)c4)cccc3C(CC2(C)C)N1Cc1ccc2c(c1)OCO2` (racemic) [Compound 12b, (±)-(1S,4R,9S)-10-(Benzo[d][1,3]dioxol-5-ylmethyl)-5-(3,4-dichlorophenyl)-3,3-dimethyl-9-(2-methylallyl)-1,2,3,4-tetrahydro-1,4-(epiminomethano)-naphthalene], for which the “Nox2 inhibitory activity” value is “inactive” and the IC50 is above 100 µM. The like results for `C=C(C)CC1C2c3c(-c4ccc(Cl)c(Cl)c4)cccc3C(CC2(C)C)N1CCCCC` (racemic) [Compound 12c] were, in that order, “inactive” and 79 µM.

As for `CC(C)CC1NC2CC(C)(C)C1c1c(Br)cccc12` (racemic) [Compound 13], the “Nox2 inhibitory activity” value is “retained inhibitory activity” and the IC50 turned out to be 78 ± 19 µM.

As to `C=C(C)CC1C2c3c(Br)cccc3C(CC2(C)C)N1S(C)(=O)=O` (racemic) [Compound 14a, (±)-(1S,4R,9S)-5-Bromo-3,3-dimethyl-9-(2-methylallyl)-10-(methylsulfonyl)-1,2,3,4-tetrahydro-1,4-(epiminomethano)naphthalene], the “Nox2 inhibitory activity” value was “completely abolished activity” and the IC50 amounted to 27 ± 4.7 µM. Turning to `C=C(C)CC1C2c3c(Br)cccc3C(CC2(C)C)N1S(=O)(=O)c1ccc(F)cc1` (racemic) [Compound 14b, (±)-(1S,4R,9S)-5-Bromo-10-((4-fluorophenyl)sulfonyl)-3,3-dimethyl-9-(2-methylallyl)-1,2,3,4-tetrahydro-1,4-(epiminomethano)naphthalene], the “Nox2 inhibitory activity” value is listed as “completely abolished activity” and the IC50 was above 100 µM.

Turning to `C=C(C)C[C@@H]1N[C@H]2CC(C)(C)[C@@H]1c1c(Br)ccc(Br)c12` [Compound 9], the IC50 was 25 ± 10 µM.

(Values after patent publication US10906876B2, “Tetrahydroisoquinolines as selective NADPH oxidase 2 inhibitors” (University of Pittsburgh—Of the Commonwealth System of …, priority 2013, dated 2021).)
